pEC50: −log10 of the molar value.
What was measured:
[1] = tested on: hypoxia-inducible endogenous VEGF expression; assay: Hypoxia-inducible endogenous VEGF expression ELISA in HeLa cells, dose-response EC50 (Table 3); type: cell-based; conditions: Homo sapiens, hypoxic conditions (1% O2), VEGF ELISA of conditioned media
Experimental: The ability of the Compounds to modulate hypoxia-inducible endogenous VEGF expression may be analyzed as follows. VEGF protein levels may be monitored by an ELISA assay (R&D Systems). Briefly, HeLa cells may be cultured for 24-48 hours under hypoxic conditions (1% O2, 5% CO2, balanced with nitrogen) in the presence or absence of a Compound. The conditioned media may then be assayed by ELISA, and the concentration of VEGF calculated from the standard ELISA curve of each assay.
A dose-response analysis may be performed using the ELISA assay and conditions described above. The conditions for the dose-response ELISA are analogous to those described above. A series of, e.g., seven different concentrations may be analyzed. In parallel, a dose-response cytotoxicity assay may be performed using Cell Titer Glo (Promega) under the same conditions as the ELISA to ensure that the inhibition of VEGF expression was not due to the cytotoxicity.

[2] = tested on: HT1080 xenografts; assay: Time course of tumor size and plasma human VEGF in HT1080 xenografts; type: in vivo, athymic nude mice; conditions: by Day 1
Experimental: (§1) Experimental Design. HT1080 cells (5×10^6 cells/mouse) were implanted subcutaneously in male athymic nude mice.
Tumor size was measured by calipers immediately pre-treatment and at the time of sacrifice on Day 1, 2, or 3 (5 mice per group per day). At sacrifice, the plasma was collected for assay of pathologic human VEGF concentration using an ELISA that recognizes human VEGF121 and VEGF165 (as described in Section 9.1.1.1).

[3] = tested on: HT1080 xenografts; assay: BrdU labeling of tumor cells from HT1080 xenografts in vivo; parameters: species or system athymic nude mice; conditions: HT1080 xenografts, 1, 2, or 3 days of treatment
Experimental: as §1
The mice were sacrificed 3 hours later, and the tumors collected. A single cell suspension was prepared from the tumor cells. The cells were permeabilized and an antibody to BrdU was used to stain cells that had entered S phase during the labeling period. The proportion of cells actively synthesizing DNA was determined by cell sorting.

[4] = tested on: KS-like angioproliferative lesions; conditions: nude mice, doses similar to AIDS patients; cited from earlier work
[5] = tested on: HT1080 cells; assay: Cell cycle analysis by propidium iodide flow cytometry in HT1080 cells (S-phase accumulation, Table 24); type: cell-based, human; conditions: same tumor cells; data not shown
Experimental: Experimental Design. […] After treatment, cells were trypsinized, and stained with propidium iodide (PI) dye to measure DNA content of individual cells by flow cytometry. Output comprised histograms showing relative DNA content in 10,000 cells.
While compounds which cause greater than 20% of the cells to accumulate in S-phase at 100 nM are considered active, a larger percentage of cells may be accumulated in S-phase at lower doses depending on the Compound, as shown in FIG. 12 for example.

[6] = tested on: primary endothelial cells; conditions: in-vitro; cited from earlier work

NC(=O)COc1ccc(C2c3[nH]c4ccc(Cl)cc4c3CCN2C(=O)Oc2ccc(Cl)cc2)cc1 (stereo not drawn) [Compound 1161]
pEC50 [1]: > 8.10

CC(CO)(CO)COc1ccc([C@H]2c3[nH]c4ccc(Cl)cc4c3CCN2C(=O)Oc2ccc(F)cc2)cc1 [Compound 1335]
pEC50 ([1]; 24-48 hours): 7.40 to 8.10

COc1cccc2c1C(=O)c1c(O)c3c(c(O)c1C2=O)C[C@@](O)(C(=O)CO)C[C@@H]3O[C@H]1C[C@H](N)[C@H](O)[C@H](C)O1 [doxorubicin, reference compound]
pathologic plasma human VEGF levels (in words) [2]: numerically lower than in control animals
BrdU staining of tumor cells (fraction in S phase) (in words) [3]: decreased the percentage of tumor cells staining with BrdU

CC(C)(C)NC(=O)[C@@H]1CN(Cc2cccnc2)CCN1C[C@@H](O)C[C@@H](Cc1ccccc1)C(=O)N[C@H]1c2ccccc2C[C@H]1O [indinavir]
macroscopic KS-like angioproliferative lesions (in words) [4]: reduction in the number and size

NC(Cn1ccc(=O)c(O)c1)C(=O)O (stereo not drawn) [mimosine, reference compound]
effect on cell cycle (and VEGF production) (in words) [5]: does not delay or prolong the cell cycle or reduce VEGF production

CC(C)c1nc(CN(C)C(=O)N[C@H](C(=O)N[C@@H](Cc2ccccc2)C[C@H](O)[C@H](Cc2ccccc2)NC(=O)OCc2cncs2)C(C)C)cs1 [ritonavir]
activation and proliferation of primary endothelial cells (in words) [6]: inhibition of activation and proliferation
production of TNF-α, IL-6, IL-8 and VEGF (in words) [6]: decreased production

CC(C)(C)NC(=O)[C@@H]1C[C@@H]2CCCC[C@@H]2CN1C[C@@H](O)[C@H](Cc1ccccc1)NC(=O)[C@H](CC(N)=O)NC(=O)c1ccc2ccccc2n1 [saquinavir]
macroscopic KS-like angioproliferative lesions (in words) [4]: reduction in the number and size

— patent US8697662B2, “Methods for treating Kaposi sarcoma” (PTC Therapeutics, Inc., priority 2009, dated 2014)
